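Dose response: 5 concentrations. Exposure: 48 h. Format: 96-well plates. Endpoint: linear interpolation; highest concentration if not reached. GI50: concentration for 50% inhibition of growth.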 Active and inactive are the calls of the source. Cut-off read from the data, not from the text of the source: active = GI50 up to about 1.1 µM and inactive = higher.
How the values were obtained:
Test in all cases: NCI tumour cell line growth inhibition, 48 h
HL-60 = test system: HL-60
NCI-H522 = test system: NCI-H522
UACC-62 = test system: UACC-62
OVCAR-5 = test system: OVCAR-5
HOP-62 = test system: HOP-62
LXFL 529 = test system: LXFL 529
SK-MEL-2 = test system: SK-MEL-2
Malme-3M = test system: Malme-3M
HCT-116 = test system: HCT-116
A498 = test system: A498
NCI-H226 = test system: NCI-H226
HOP-92 = test system: HOP-92
A549 = test system: A549
SK-MEL-5 = test system: SK-MEL-5
COLO 205 = test system: COLO 205
SN12C = test system: SN12C
OVCAR-3 = test system: OVCAR-3
RPMI-8226 = test system: RPMI-8226
Hs-578T = test system: Hs-578T
T47D = test system: T47D

Measured: GI50

C1COCCSC2=C(SCCO1)SC(=C1SC3=C(SCCOCCOCCS3)S1)S2
inactive: HL-60 > 100 µM | NCI-H522 36.2 µM | UACC-62 > 100 µM | OVCAR-5 > 100 µM | HOP-62 82.2 µM | LXFL 529 > 100 µM | SK-MEL-2 84.3 µM | Malme-3M 98.9 µM | HCT-116 > 100 µM | A498 > 100 µM | NCI-H226 > 100 µM | HOP-92 44.7 µM | A549 > 100 µM | SK-MEL-5 > 100 µM | COLO 205 > 100 µM | SN12C > 100 µM | OVCAR-3 > 100 µM

Nc1ccc(/C=C/c2ccnc3ccccc23)cc1
inactive: HL-60 3.24 µM | NCI-H522 13.2 µM | UACC-62 23.4 µM | OVCAR-5 19.6 µM | HOP-62 15.3 µM | RPMI-8226 15.6 µM | LXFL 529 19.7 µM | SK-MEL-2 17.7 µM | Malme-3M 30.3 µM | HCT-116 17.5 µM | NCI-H226 17.7 µM | HOP-92 20.3 µM | A549 19.4 µM | SK-MEL-5 15.2 µM | COLO 205 22.9 µM | OVCAR-3 15 µM

c1ccc(COc2cccc3cccnc23)cc1
inactive: HL-60 19.9 µM | NCI-H522 50.9 µM | UACC-62 95.9 µM | OVCAR-5 > 100 µM | HOP-62 > 100 µM | RPMI-8226 > 100 µM | LXFL 529 47.8 µM | Malme-3M 48.4 µM | HCT-116 83.6 µM | NCI-H226 > 100 µM | HOP-92 28.4 µM | A549 > 100 µM | SK-MEL-5 50.2 µM | COLO 205 > 100 µM | SN12C > 100 µM | OVCAR-3 63.5 µM

CCCCOC(=O)NC(=O)c1cn(CCCOC(=O)NCCCCCCNC(=O)OCCCn2cc(C(=O)NC(=O)OCCCC)c(=O)[nH]c2=O)c(=O)[nH]c1=O
inactive: HL-60 > 100 µM | NCI-H522 > 100 µM | UACC-62 > 100 µM | OVCAR-5 > 100 µM | HOP-62 > 100 µM | RPMI-8226 > 100 µM | LXFL 529 90.4 µM | SK-MEL-2 > 100 µM | Malme-3M > 100 µM | HCT-116 > 100 µM | A498 > 100 µM | HOP-92 23.6 µM | A549 > 100 µM | SK-MEL-5 > 100 µM | COLO 205 > 100 µM | SN12C > 100 µM | OVCAR-3 > 100 µM

NC(CCC(=O)c1ccccn1)C(=O)O (stereo not given)
inactive: HL-60 > 100 µM | NCI-H522 > 100 µM | UACC-62 > 100 µM | OVCAR-5 > 100 µM | HOP-62 > 100 µM | RPMI-8226 > 100 µM | Hs-578T > 100 µM | SK-MEL-2 > 100 µM | Malme-3M > 100 µM | HCT-116 > 100 µM | A498 > 100 µM | NCI-H226 > 100 µM | HOP-92 > 100 µM | A549 > 100 µM | SK-MEL-5 > 100 µM | COLO 205 > 100 µM | T47D > 100 µM | SN12C > 100 µM | OVCAR-3 > 100 µM

O=C(O)\C=C/C=C/C=C/C=C/C(=O)O
inactive: HL-60 > 100 µM | NCI-H522 > 100 µM | UACC-62 90.4 µM | OVCAR-5 > 100 µM | HOP-62 > 100 µM | RPMI-8226 > 100 µM | LXFL 529 > 100 µM | SK-MEL-2 > 100 µM | Malme-3M > 100 µM | HCT-116 > 100 µM | A498 > 100 µM | NCI-H226 > 100 µM | A549 > 100 µM | SK-MEL-5 > 100 µM | COLO 205 > 100 µM | SN12C > 100 µM | OVCAR-3 > 100 µM

O=c1[nH]cnc2c1ncn2C1SC(CO)C(O)C1O (stereo not given)
inactive: HL-60 > 100 µM | NCI-H522 > 100 µM | UACC-62 > 100 µM | OVCAR-5 > 100 µM | HOP-62 > 100 µM | RPMI-8226 > 100 µM | Hs-578T > 100 µM | SK-MEL-2 > 100 µM | Malme-3M > 100 µM | HCT-116 > 100 µM | A498 > 100 µM | NCI-H226 > 100 µM | HOP-92 > 100 µM | A549 > 100 µM | SK-MEL-5 > 100 µM | COLO 205 > 100 µM | T47D > 100 µM | SN12C > 100 µM | OVCAR-3 > 100 µM

N#Cc1c2c(c(Nc3ccc(Cl)cc3)n3c1nc1ccccc13)CCCC2
inactive: HL-60 7.03 µM | NCI-H522 17.5 µM | UACC-62 > 100 µM | OVCAR-5 > 100 µM | HOP-62 31.2 µM | RPMI-8226 4.75 µM | Hs-578T 26.2 µM | SK-MEL-2 > 63.8 µM | Malme-3M > 67.6 µM | HCT-116 8.65 µM | A498 > 94.6 µM | NCI-H226 > 64.3 µM | HOP-92 > 37.4 µM | A549 43 µM | SK-MEL-5 20.5 µM | COLO 205 37.9 µM | T47D 33.1 µM | SN12C 65.9 µM | OVCAR-3 13.4 µM

Cn1c2ccccc2n2c3ncccc3c(=O)c(C#N)c12
inactive: HL-60 2.09 µM | NCI-H522 9.02 µM | UACC-62 8.41 µM | OVCAR-5 24.5 µM | HOP-62 5.18 µM | RPMI-8226 > 100 µM | Hs-578T 18.9 µM | SK-MEL-2 35 µM | Malme-3M 6.04 µM | HCT-116 4.81 µM | A498 10.4 µM | NCI-H226 1.79 µM | HOP-92 19.5 µM | A549 5.2 µM | SK-MEL-5 4.45 µM | COLO 205 3.91 µM | T47D 15.2 µM | SN12C 8.49 µM | OVCAR-3 11 µM

NC(=O)N/N=C(/Cc1nc2ccc(C(=O)c3ccccc3)cc2nc1O)C(=O)Nc1ccc(C(F)(F)F)cc1[N+](=O)[O-]
inactive: HL-60 42.1 µM | NCI-H522 22.6 µM | UACC-62 38.7 µM | OVCAR-5 > 100 µM | HOP-62 > 100 µM | RPMI-8226 50.1 µM | LXFL 529 45.5 µM | SK-MEL-2 > 100 µM | Malme-3M > 100 µM | HCT-116 > 100 µM | A498 > 100 µM | HOP-92 45.7 µM | A549 > 100 µM | SK-MEL-5 56.2 µM | COLO 205 25.5 µM | SN12C > 100 µM | OVCAR-3 43.4 µM

Nc1cc2c3c(c1)Oc1cc(N)cc4c1C3c1c(cc(N)cc1O4)O2
inactive: HL-60 23.9 µM | NCI-H522 21.2 µM | UACC-62 26.4 µM | OVCAR-5 29 µM | HOP-62 25.7 µM | RPMI-8226 14.7 µM | Hs-578T 24.2 µM | SK-MEL-2 28.9 µM | Malme-3M 6.32 µM | HCT-116 21.7 µM | A498 63.8 µM | NCI-H226 3.07 µM | HOP-92 57.5 µM | A549 32.5 µM | SK-MEL-5 11.9 µM | COLO 205 16.1 µM | T47D 20.7 µM | SN12C 16.7 µM | OVCAR-3 20.2 µM
